Assay results reported in patent US5773438A, “Synthetic matrix metalloprotease inhibitors and use thereof” (Glycomed Incorporated, priority 1994, dated 1998).
Entries after “also recorded” stand apart in the source; their conditions may differ.

Key:
[1] = test system: infiltration of neutrophils in the peritoneal cavity; assay: thioglycollate induced peritonitis assay; format: in vivo, Balb/c male mice; settings: 800 μg/ml, 1 ml/animal i.p. at 0.5, 1.0, 2.0 hr; p=0.0141
Method: 6-8 week old Balb/c male mice were used (n=10 each for the treated and control groups). Thioglycollate suspension (5.9 g/l in deionized water) was boiled until the color was golden, then cooled yielding a pink color. The lavage solution consisted of saline supplemented with 0.1% bovine serum albumin (100 mg/100 ml) and 5U heparin/ml.
Cells were collected by lavage at T=3.0 hr. post thioglycollate administration. The animals were euthanized by CO2 asphyxiation, and the abdominal skin was cut with surgical scissors to reveal the peritoneal cavity. Five ml of lavage fluid was injected into the peritoneum, and a suspension was made by gentle massage. The fluid was removed by syringe, recovering about 80% of the injected fluid. Total cell counts in the lavage fluid were determined by Coulter Counter.

[2] = test system: PdiBu-Induced Epidermal Hyperplasia; assay: PdiBu-induced epidermal hyperplasia mouse model (psoriasis); format: in vivo, hairless mice
Method: The phorbol ester, PdiBu (20 nmol in 20 μl if acetone) was applied to both ears of hairless mice (h/h) (approximately 1 cm^2 each). The test compounds (in total volume of 20 μl) were then applied to the right ear immediately (15 to 30 min) following PdiBu. The left ear of each animal received an equivalent amount (20 μl) of vehicle. Test compounds (and vehicle) were reapplied at 6 and 18 hours following PdiBu. Treatment times were staggered to allow exact time intervals to be obtained. At 30 hours after PdiBu, animals were anesthetized, and ear thickness values were obtained using a microcaliper. The weights of punch biopsies (6mm) were then obtained. Histology was performed on selected samples taken at 30 hours.
Left ear in each animal served as vehicle-treated controls (PdiBu+ETOH). Thus, the controls for this series include: 1) Untreated controls; 2) PdiBu plus vehicle alone (included for each mouse tested); 3) PdiBu plus AHA; 4) PdiBu plus Lidex® as a positive control.

corneal vessels = assay: inhibition of angiogenesis, rat cornea pellet implant (Walker 256 extract); format: in vivo; settings: 10 mg/mL in 55% DMSO, infused into vena cava 0.8 mL/24 hr, six days
Method: A crude extract (30 mg/mL protein) of Walker 256 carcinoma, a rat malignant tumor, was incorporated into Hydron, a slow release polymer, in 1.5 mm diameter pellets. Pellets were implanted in the stroma of the corneas of anesthetized albino rats. […] Controls received only the DMSO solution. After six days, the animals were re-anesthetized and perfused intra-arterially with India ink in order to visualize the corneal vessels. The eyes were then enucleated and fixed in 5% formalin. Control eyes which received only the DMSO solution show massive vessel growth toward the pellet from the limbus.

Stromelysin = Stromelysin (Homo sapiens, UniProt P08254); assay: inhibition of stromelysin (Table 2); format: biochemical; settings: read-out: Strom inhibitory activity
Method: Specifically, assay of inhibition activity can be conducted as follows. […] Assays for inhibition of human stromelysin are conducted as described by Teahan, J., et al., Biochemistry (1989) 20:8497-8501.
Assay of inhibition activity can be conducted using a fluorogenic substrate developed by Knight et al., FEBS Letters (1992) 296:263. This method uses a fluorometer to determine the rate of substrate hydrolysis in a 96 well plate format. Reaction rates are determined at several substrate concentrations, and multiple inhibitor levels. The data are analyzed by Lineweaver-Burk, Dixon and Henderson plot analyses (Enzyme Kinetics (1975) Irwin Segal (John Wiley & Sons, Inc., publishers), and as described by Henderson, Biochem J. (1972) 127:321). The substrate levels range from 10-30μM. […] Inhibitors may be assayed against purified 72 kD gelatinase, 92 kD gelatinase, neutrophil collagenase, stromelysin or other proteases as appropriate. The enzymes are activated at 37° C. with APMA (4-aminophenylmercuric acetate), and the assays are carried out at room temperature.

B16-F10 murine melanoma = assay: experimental metastasis assay in C57 mice; format: in vivo, Female C57 BL/6 mice; settings: days 35-37; 150 mg/kg/d ip; p<0.05
Method: Female C57 BL/6 mice, 4-6 weeks old (15-20 grams), from Simonsen Laboratories (Gilroy, Calif.) were used for this assay.
The B16-F10 murine melanoma was obtained from the American Type Tissue Culture Collection, and routinely propagated in DMEM (Dulbecco's modified eagles medium)+10% fetal calf serum in plastic tissue culture flasks in a humidified 5% CO2 incubator at 37° C. B16-F10 tumor cells were harvested with trypsin-EDTA (ethylenediamine-tetraacetic acid), washed with PBS (phosphate buffered saline, 2x), resuspended at a concentration of 5×10^5 cells/ml, and held on ice prior to injection. Animals were challenged with 5×10^4 cells in a volume of 0.1 ml intravenously (10 animals/treatment group). Animals were randomly distributed prior to assignment to treatment groups.
Survival times were recorded for animals in the various treatment groups, and results were evaluated using Chi-Squared statistical analysis.

common carotid artery = assay: anti-restenotic assay, balloon catheter injury of common carotid artery; format: in vivo, Male Sprague-Dawley rats
Method: Male Sprague-Dawley rats (3-3.5 months old) were subject to balloon catheter injury of the common carotid artery (Clowes et al. Lab. Invest. (1983) 49:208-215). […] Rats were sacrificed at 4 days after injury. They were injected with 25 mg/kg BrdU subcutaneously at 17, 9 and 1 hours before sacrifice to label replicating vascular smooth muscle cells. A catheter was inserted into the aorta, and the carotids were fixed by perfusion with 4% paraformaldehyde at physiologic pressure. After carefully dissecting out the common carotid, the vessels were embedded in paraffin, cross-sectioned and stained with anti-BrdU antibody and hematoxylin, and an index of medical smooth muscle cell replication was obtained by expressing the % labelled SMCs ([…] et al., J. Clin. Invest. (1992) 90:2044-2049). After fixation, the common carotids were pinned out with the intimal surface facing upwards, and cells present on the intimal surface were stained with an antibody to histone proteins. […] The surface cells were counted and the number of cells per unit area was determined. […] The animals were injected with BrdU before sacrifice to label replicating cells in the media and intima. By 10 days after injury, the normal vessel forms a thickened neointima; smooth muscle migration in to the intima and subsequent proliferation contribute to this thickening. Cross-sections of the vessel were cut and stained with anti-BrdU and hematoxylin. Intimal cross-sectional areas were measured using a computer digitizing system. […] All data are presented as mean+SEM, and the data were analyzed by student's test.

hypovolemic shock = assay: hypovolemic shock, trauma-hemorrhage and resuscitation, non-heparinized rat; format: in vivo, Sprague-Dawley rats
Method: This experiment relates to metalloprotease inhibitors in treating hypovolemic shock when administered systemically (via i.v. injection, infusion or other appropriate route) during resuscitation following hemorrhage-induced shock in a non-heparinized animal.
Following hemorrhage, Ringer's lactate (3X maximum bleedout volume) was given over 45 minutes followed by Ringer's lactate (2X maximum bleedout volume) over 60 minutes. […] Sham-operated animals underwent blood vessel cannulation and midline incision, but hemorrhage and resuscitation was not induced. […] Saline-treated underwent trauma-hemorrhage and fluid resuscitation plus vehicle (an equal volume of normal saline) treatment.

Sequence of Stromelysin (P08254 100-477): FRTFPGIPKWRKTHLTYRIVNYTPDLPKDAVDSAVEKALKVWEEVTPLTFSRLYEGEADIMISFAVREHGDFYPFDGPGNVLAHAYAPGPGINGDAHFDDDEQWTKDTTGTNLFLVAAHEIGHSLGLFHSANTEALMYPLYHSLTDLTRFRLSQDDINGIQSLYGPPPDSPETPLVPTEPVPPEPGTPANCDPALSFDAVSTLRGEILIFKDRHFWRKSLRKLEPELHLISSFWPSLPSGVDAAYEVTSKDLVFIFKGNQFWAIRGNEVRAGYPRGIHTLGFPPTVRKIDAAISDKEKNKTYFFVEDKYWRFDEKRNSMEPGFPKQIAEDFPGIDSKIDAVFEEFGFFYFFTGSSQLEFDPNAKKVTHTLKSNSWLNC

## CNC(=O)[C@H](Cc1c[nH]c2ccccc12)NC(=O)[C@@H](CC(=O)NO)CC(C)C [Compound 5A, N-[D,L-2-isobutyl-3-(N'-hydroxycarbonylamido)-propanoyl]-tryptophan methylamide]
[1]
  average number of cells in the peritoneum versus vehicle: significantly reduced
[2]; PdiBu + 5A, 0.51 μmol/ear at 0.25 and 24 hours, 6 mm punch
  skin biopsy weight: 13.4 ± 1.5 mg
[2]; PdiBu + 5A, 0.51 μmol/ear at 0.25 and 24 hours, of untreated control
  skin biopsy weight, % of Control: 146%
[2]; PdiBu + 5A, topical 0.51 μmol/ear
  ear thickness: 18.6 ± 1.6 inch × 10^-3
[2]; PdiBu + 5A, topical 0.51 μmol/ear, of untreated control
  ear thickness, % of Control: 140%
[2]; histology
  PdiBu-induced epidermal hyperplasia: inhibited; also recorded: completely prevents; also recorded: decreased inflammation and epidermal hyperplasia
  PdiBu-induced extravasation of RBC's: inhibited
  PdiBu-induced migration of inflammatory cells into dermis and epidermis: inhibited
  epidermal morphology: more normal appearing epidermal morphology
[2]; in vivo model for psoriasis
  anti-inflammatory activity: potent anti-inflammatory activity; also recorded: nearly comparable to that observed with Lidex®
[2]; topical
  effect on PdiBu-induced ear thickness: significantly inhibited
  effect on PdiBu-induced increase in punch biopsy weight: significantly inhibited
Corneal vessels
  corneal vessel growth versus controls: vessels much shorter and/or much finer than in the controls, barely filling with ink
Stromelysin
  Ki: 27 nM
B16-F10 murine melanoma
  survival of mice versus vehicle control: significant increase in the survival
Common carotid artery; 4 day, 100 mg/kg i.p. daily
  number of cells per unit area (intimal surface) versus CMC controls: significant decrease
Common carotid artery; 4 days after balloon injury
  cell migration into the intima: very large decrease
Common carotid artery; 10 day
  intimal cell replication rate versus controls: significantly higher
  lesion thickness: dramatically reduced
Common carotid artery; 10 day, daily administration
  intimal cross-sectional area versus CMC controls: significant decrease
Hypovolemic shock; 2 and 4 hours
  hepatocellular function (Vmax and Km): improved hepatic function relative to saline group; also recorded: restores or significantly improves
Hypovolemic shock; 2 h
  Vmax of indocyanine green clearance versus saline group: significantly higher
Hypovolemic shock; 2 h after resuscitation, of sham level
  maximal clearance rate (Vmax) of indocyanine green: about 85%
Hypovolemic shock; 2 h and 4 h, liver, kidney, spleen, small intestine
  microvascular blood flow versus saline group: elevated relative to the saline group; also recorded: restores or significantly improves
Hypovolemic shock; 2 h and 4 h, of sham, liver, kidney, spleen, small intestine
  microvascular blood flow: 80-100%
Hypovolemic shock; 4 h
  Vmax of indocyanine green clearance versus saline treated animals: two-fold that of saline treated animals
Hypovolemic shock; following resuscitation, versus saline or sham
  total peripheral resistance: lower following resuscitation in 5A group versus saline or sham treatment; also recorded: decreases total peripheral resistance
Hypovolemic shock; of sham group
  cardiac output: about 80%
  stroke volume: about 85%
Hypovolemic shock; of the sham group
  mean arterial pressure: 60-70%
Hypovolemic shock; rat, in vivo
  cardiac output versus saline group: significantly elevated; also recorded: restores or significantly improves
  mean arterial pressure versus saline: not significantly different; also recorded: no significant effects
  stroke volume versus saline group: elevated relative to saline group
  systemic hematocrit versus saline treated group: no significant effects
Hypovolemic shock; versus other groups
  heart rate: about the same; also recorded: no significant effects
